Laboratory results as given in paper PMC6321136, “Combined In Vitro Studies and in Silico Target Fishing for the Evaluation of the Biological Activities of Diphylleia cymosa and Podophyllum hexandrum” (Molecules, 2018).
Converted amounts (≈) assume the structure as drawn. Like-named read-outs stand apart in the source and are kept apart here.

What was measured:
[1] = tested on: Anti-Inflammatory model; parameters: method as in PubChem Bioassay AID 602277; details: ref PubChem Bioassay AID 602277; cited from earlier work
[2] = Cytotoxicity in THP-1 cells, SRB method; assay type: cell-based; details: human, THP-1 cells (PMA-treated, adherent)
Description: The assay was performed following the sulforhodamine B (SRB) method. THP-1 cells (acute human monocytic leukemia cells, ATCC TIB-202) were cultured in a RPMI medium supplemented with 10% fetal bovine serum. A cell suspension was prepared at the density of 1 × 10^6 cells/mL with 2 μL of PMA (phorbol myristyl acetate, Sigma, St. Louis, MO, USA, 30 µg/mL). A portion of 100 μL of this suspension was transferred to the wells of a microplate. The plate was incubated at 37 °C, in a 5% CO2 atmosphere, for about 12 to 16 h to allow cells to adhere. After that, 100 μL of each sample (400, 200, 100, 50 and 25 μg/mL) were added to the wells. The plate was then incubated at 37 °C for 18 h. After incubation, 100 μL of cold trichloroacetic acid (TCA, 10%) solution was added in each well. The plate was incubated at 4 °C for 1 h. The supernatant was discarded and the wells were washed three times with 200 μL of distilled water. Then, the wells were allowed to dry for 24 h. […] The plate was then stirred for 5 min inside the microplate reader. The optical density was measured at 510 nm in a microplate reader. […] Cell viability was calculated according to the formula (A − B/C − B) × 100, where A, B and C corresponds to the absorbance measured for the samples, blank and negative control, respectively. […]

[3] = tested on: Agonist, p53; parameters: method as in PubChem Bioassay AID 651631; details: ref PubChem Bioassay AID 651631; cited from earlier work
[4] = tested on: Agonist, peroxisome proliferator-activated receptor delta (PPARd); parameters: method as in PubChem Bioassay AID 743227; details: ref PubChem Bioassay AID 743227; cited from earlier work
[5] = tested on: Agonist, endoplasmic reticulum stress response; parameters: method as in PubChem Bioassay AID 1159519; details: ref PubChem Bioassay AID 1159519; cited from earlier work
[6] = tested on: Cytotoxicity, Activate, aryl hydrocarbon receptor (AhR); parameters: method as in PubChem Bioassay AID 743086; details: ref PubChem Bioassay AID 743086; cited from earlier work
[7] = tested on: Escherichia coli ATCC 11775; assay: Antibacterial microdilution assay; assay type: cell-based; details: ATCC11775, read-out: E. coli Mean ± SD (percentage of inhibition of microbial growth)
Description: (§1) Antibacterial susceptibility was performed using the modified microdilution method for bacteria, against Gram-positive (Staphylococcus aureus ATCC 25923 and Bacillus cereus ATCC 11778) and Gram-negative recognized pathogens (Escherichia coli ATCC 11775, Enterohemorrhagic E. coli ATCC 43895-EHEC, Pseudomonas aeruginosa ATCC 10145 and Salmonella choleraesuis subs. choleraesuis sorotype Typhi BM/Panama-TY2).
(§2) The experiments were performed in 96 well microplates. The extracts and isolated substance solubilized in DMSO (Vetec^TM) at 50 mg/mL were diluted in Mueller Hinton Broth (MHB, Difco) at a concentration of 500 µg/mL. The bacterial isolates, criopreserved at −80 °C were grown in Tryptic Soy Agar (TSA, Acumedia®) plates, at 37 °C for 18–24 h. The inoculum was adjusted in saline solution in a spectrophotometer at 625 nm, to a concentration of 1–5 × 10^8 CFU/mL and then diluted in MHB to 1–5 × 10^5 CFU/mL.
(§3) Volumes of 100 μL of the inoculum were added to wells containing 100 μL of the extracts at […], in triplicate (one well intended for extract control), resulting in a final concentration of 250 μg/mL. Chloramphenicol at 50 μg/mL and 0.5% DMSO were used as positive and negative controls, respectively. Evaluation of microbial growth was carried out by adding the inoculum to a well containing only MHB. Sterility of the culture medium was also confirmed by incubation in the assay plate. Assays were performed in triplicate. The microplates were incubated at 37 °C for 24 h. As an indicator of microbial growth, 20 μL of 2,3,5-triphenyltetrazolium chloride (TTC, Sigma-Aldrich, St. Louis, MO, USA) at 5 mg/mLwere added to each well. The plates were incubated at 37 °C for 3 h and then the TTC was solubilized with 100 μL of sodium lauryl sulfate solution in isopropanol 7 μg/mL and measured in a microplate reader at 485 nm. The result was expressed as the percentage of inhibition compared with the microbial growth control, and was considered positive for antibacterial activity for those extracts with an inhibition higher than 50%.

[8] = tested on: Staphylococcus aureus ATCC 25923; assay: Antibacterial microdilution assay; assay type: cell-based; details: ATCC25923, read-out: S. aureus Mean ± SD (percentage of inhibition of microbial growth)
Description: as §1, §2, §3

[9] = tested on: Pseudomonas aeruginosa ATCC 10145; assay: Antibacterial microdilution assay; assay type: cell-based
Description: as §1, §2, §3

[10] = tested on: Bacillus cereus ATCC 11778; assay: Antibacterial microdilution assay; assay type: cell-based; details: ATCC11778, read-out: B. cereus Mean ± SD (percentage of inhibition of microbial growth)
Description: as §1, §2, §3

[11] = tested on: Cytotoxicity, Antagonist, androgen receptor (AR); parameters: method as in PubChem Bioassay AID 1259242; details: ref PubChem Bioassay AID 1259242; cited from earlier work
[12] = tested on: Cytotoxicity, Antagonist, androgen receptor (AR); parameters: method as in PubChem Bioassay AID 743041; details: ref PubChem Bioassay AID 743041; cited from earlier work
[13] = tested on: Agonist, hypoxia; parameters: method as in PubChem Bioassay AID 1224894; details: ref PubChem Bioassay AID 1224894; cited from earlier work
[14] = tested on: Angiogenesis model; parameters: method as in PubChem Bioassay AID 1117340; details: ref PubChem Bioassay AID 1117340; cited from earlier work

Question: For COc1cc([C@@H]2c3cc4c(cc3[C@H](O)[C@H]3COC(=O)[C@H]23)OCO4)cc(OC)c1OC [Podophyllotoxin, podophyllotoxin], which “Exper. Activity” value [1] is on record?
Answer: Active

Question: What about the CC50 at 18 h [2] of the same molecule?
Answer: 400 ± 10.3 mg/L (≈ 965 µM)

Question: And the “Exper. Activity” value [3]?
Answer: Inactive

Question: And the “Exper. Activity” value [4]?
Answer: Inactive

Question: What about the “Exper. Activity” value [5] of the same molecule?
Answer: Inactive

Question: What about the “Exper. Activity” value [6] of the same molecule?
Answer: Inactive

Question: And the inhibition at 250 µg/mL [7]?
Answer: 51.6 ± 9.08%

Question: What about the inhibition at 250 µg/mL [8] of the same molecule?
Answer: 53.3 ± 8.8%

Question: And the “P. aeruginosa Mean ± SD (percentage of inhibition of microbial growth)” value ([9]; 250 µg/mL)?
Answer: No antibacterial activity

Question: And the inhibition at 250 µg/mL ([9]; Pseudomonas aeruginosa, ATCC10145, read-out: P. aeruginosa Mean ± SD (percentage of inhibition of microbial growth))?
Answer: 30.2 ± 9.39%

Question: And the inhibition at 250 µg/mL [10]?
Answer: 0%

Question: And the “Exper. Activity” value [11]?
Answer: Inactive

Question: And the “Exper. Activity” value [12]?
Answer: Inactive

Question: What about the “Exper. Activity” value [13] of the same molecule?
Answer: Inactive

Question: What about the “Exper. Activity” value [14] of the same molecule?
Answer: Active
